Data taken from US9528143B2, “Tracer reagents that enhance reaction-product analysis” (Sigma-Aldrich Co. LLC, priority 1999, dated 2016).

Legend:
restriction enzymes = experiment: Restriction digest of NdeI-cut pUC19 with and without dye, agarose gel; type: biochemical; conditions: crude dye, all enzymes tested with the exception of KpnI, FIG. 17
Experimental: The effectiveness of restriction enzymes in cutting target DNA when a dye is present in the reaction mixture was evaluated. A variety of restriction enzymes were assayed for the detrimental effect of adding Amaranth (No. 31, Table 2) to a restriction digest as assayed by agarose gel electrophoresis. NdeI-cut pUC19 plasmid was prepared. This linearized plasmid was then digested with one of several restriction enzymes which normally cut pUC19 at a polylinker site. Thus, each enzyme would be expected to yield a product of similar sizes (ranging from 212 to 263 bp). The restriction enzyme digests were performed in the presence, or absence, of Amaranth dye, and at various concentrations of the enzyme. Column 1 (the leftmost column) contains 100 bp molecular weight ladders. Columns 2-4 contains cleavage products from sequential 5-fold dilutions of the restriction enzymes in the presence of dye. Columns 5-7 are as columns 2-4 but without dye. Columns 2 and 5 contained the restriction enzyme at 1/10th the suppliers concentration (i.e. the enzyme was considered a 10× concentration). The buffers used for the digests were as recommended by the supplier. The enzymes used are listed along the right side of the gel. The relative susceptibility of the enzyme to the dyes' presence is reported next to the enzyme. The sizes of the small bands in the electrophoresis runs range from 212 to 263 bp. […]

Taq polymerase = Taq polymerase (Thermus aquaticus, UniProt P19821); conditions: Hoppe et al., BioTechniques 12:679-680 (1992); cited from earlier work
Taq DNA polymerase = target: T1, Taq DNA polymerase (Thermus aquaticus, UniProt P19821); experiment: PCR yield (TCA precipitation) versus dye concentration, purity and counterion; type: biochemical; conditions: for PCR toxicity by counterion: FIGS. 12A and 12B
T1 construct: purchased Sigma Chemical Co., St. Louis, Mo
Experimental: The dyes that survived these preceding tests were included in a PCR toxicity study. The dyes were added to PCR reactions at concentrations considered adequate for product performance. Enough of a 2× PCR master mix consisting of Taq DNA polymerase, 0.1 u/μl (Sigma Chemical Co., St. Louis, Mo.), PCR buffer (2×) (Sigma), dNTP's (200 μM each) (Sigma), α^32PdCTP (Amersham USA, Piscataway, N.J.), target DNA (lambda, 2 ng/μl) (Sigma) and primers (Perkin-Elmer 500 bp control, 2 μM) (Perkin-Elmer, Norwalk, Conn.) was prepared to accommodate all 11 remaining dyes plus three no dye controls. Ten μl of the 2× master mix was dispensed into reaction tubes followed by addition of 10 μl of aqueous darkly colored dye solutions or water (controls). The PCR cycling protocol was 20 cycles of 94/55/72° C. at one minute each. 20 μl of quench solution ([…] calf thymus DNA, 20 mM EDTA) was added followed by precipitation with 40 μl 40% trichloroacetic acid (TCA)/4% sodium pyrophosphate (NaPPi). The reactions were filtered on glass fiber filters, washed with 5% TCA/2% NaPPi and counted by scintillation methods. This quench/precipitation procedure will henceforth be referred to as “TCA precipitation”. […] The dyes that inhibited PCR were dropped from consideration (FIG. 6, PCR Tox, Table 2, those marked under “PCR”). […] Per cycle yield was calculated assuming the overall yield was the per cycle yield raised to the 20th power (FIG. 7). In FIG. 7, T1, T2, and T3 represent Taq controls (no dye) as in block and precipitation, numerals are dye number. Per cycle yield is calculated assuming […] where y is the 20 cycle yield (measured) and y1 is the per cycle yield. Table 3 summarizes the results as graphically depicted in FIG. 7 for each of dyes 23, 24, 25, 26, 31, and 39.
On the basis of performance to this point, the remaining dyes were considered substantially equivalent as tracer candidates. Acid violet 5 (number 39, Table 2) was chosen as a possible finalist candidate. Using this dye in a reaction mix at an absorbance of 10 (at its absorbance maximum of 527 nm) a PCR reaction was performed. […] This was considered unacceptable, but was overcome by further development efforts.
In general, the available dyes, as well as those investigated, are derived from unrelated applications. That is, many are used as fabric dyes, food colorings, biological stains etc. As such, they are available in various states of purity. In the case of the finalists, they all had purities of 80% or less, as determined by the product labels. In further experiments, PCR yields (determined by TCA precipitation) in reactions containing various concentrations of acid violet 5 (determined by A527) were compared before and after purification of the crude dye by reverse phase desalting. […] Since reversed phase desalting is not an attractive method for large scale dye purification, acid precipitation followed by ammonium hydroxide dissolution/evaporation to produce the ammonium dye was investigated. This procedure should result in an essentially salt free product. These procedures (reversed phase desalting and acid/ammonium hydroxide) were carried out for acid red 1 (No. 26, Table 2) and acid violet 5 (No. 39). […] The dyes were converted to their magnesium salts to further characterize the effect of counterion identity. This was accomplished by addition of magnesium chloride (excess) to a solution of the crude dye. The magnesium dye that immediately precipitated was recrystallized from water. […] In analogy with the magnesium salts, the calcium and zinc salts of acid red 1 were prepared to investigate whether the effect was divalent vs. monovalent cation or cation identity specific.

Sequence of Taq polymerase (P19821 whole entry): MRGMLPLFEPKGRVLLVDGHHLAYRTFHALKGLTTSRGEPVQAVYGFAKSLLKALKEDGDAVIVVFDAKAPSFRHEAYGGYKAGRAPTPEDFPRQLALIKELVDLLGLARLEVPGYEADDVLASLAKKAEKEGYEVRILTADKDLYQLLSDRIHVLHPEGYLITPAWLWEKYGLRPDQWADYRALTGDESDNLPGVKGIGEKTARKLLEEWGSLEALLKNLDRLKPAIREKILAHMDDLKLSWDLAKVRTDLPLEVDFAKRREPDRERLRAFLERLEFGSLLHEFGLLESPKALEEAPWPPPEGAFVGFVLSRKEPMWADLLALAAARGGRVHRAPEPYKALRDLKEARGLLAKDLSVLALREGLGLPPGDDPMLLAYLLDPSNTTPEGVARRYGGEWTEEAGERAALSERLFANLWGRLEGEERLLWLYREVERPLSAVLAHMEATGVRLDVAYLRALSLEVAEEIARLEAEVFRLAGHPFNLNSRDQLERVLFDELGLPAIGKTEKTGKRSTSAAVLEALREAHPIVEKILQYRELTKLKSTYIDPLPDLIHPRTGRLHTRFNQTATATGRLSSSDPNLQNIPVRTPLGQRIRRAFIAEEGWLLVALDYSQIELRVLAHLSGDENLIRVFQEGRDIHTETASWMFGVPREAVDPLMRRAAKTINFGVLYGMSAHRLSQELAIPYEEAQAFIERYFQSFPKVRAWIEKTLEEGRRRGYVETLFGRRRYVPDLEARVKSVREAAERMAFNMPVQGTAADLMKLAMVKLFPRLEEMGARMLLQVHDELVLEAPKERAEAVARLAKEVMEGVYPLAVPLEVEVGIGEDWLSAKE
T1 sequence (P19821 whole entry): as above

Molecule	compatibility with Taq (Taq polymerase)	PCR toxicity by counterion (Taq DNA polymerase)	further results
O=S(=O)([O-])c1ccc2c(N=Nc3ccc(S(=O)(=O)[O-])c4ccccc34)c(O)c(S(=O)(=O)[O-])cc2c1.[Na+].[Na+].[Na+] [Dye 31, Amaranth]			effect of dye on restriction enzyme digests (restriction enzymes): relatively inert
O=C([O-])C1=NN(c2ccc(S(=O)(=O)[O-])cc2)C(=O)C1N=Nc1ccc(S(=O)(=O)[O-])cc1.[Na+].[Na+].[Na+] (centres unmarked) [tartrazine]	compatible with Taq		
acid violet 5 [acid violet 5 desalted]			susceptibility of PCR product yield to dye concentration (Taq DNA polymerase; desalted relative to crude compound, FIG. 11): much less susceptible to dye concentration
CC(=O)Nc1cc(S(=O)(=O)[O-])cc2cc(S(=O)(=O)[O-])c(N=Nc3ccccc3)c(O)c12.[Na+].[Na+] [acid red 1 ammonium, acid red 1]		more PCR toxic than the sodium	
Cc1cc(C2(c3ccc(O)c(C)c3)OS(=O)(=O)c3ccccc32)ccc1O [cresol red]	compatible with Taq		
CC(=O)Nc1cc(S(=O)(=O)[O-])cc2cc(S(=O)(=O)[O-])c(N=Nc3ccccc3)c(O)c12.[Na+].[Na+] [acid red 1 Mg salt, acid red 1]		much less toxic to PCR than either the sodium or ammonium salts	PCR toxicity of magnesium vs calcium and zinc salts (Taq DNA polymerase; FIG. 12C): least toxic
acid violet 5 [acid violet 5 ammonium]		more PCR toxic than the sodium	
OC[C@H]1O[C@@](CO)(O[C@H]2O[C@H](CO)[C@@H](O)[C@H](O)[C@H]2O)[C@@H](O)[C@@H]1O [sucrose]	compatible with Taq		
CC(=O)Nc1ccc(N=Nc2c(S(=O)(=O)[O-])cc3cc(S(=O)(=O)[O-])cc(NS(=O)(=O)c4ccc(C)cc4)c3c2O)cc1.[Na+].[Na+] [Dye 39, Acid Violet 5]			loss in PCR product yield (Taq DNA polymerase; dye in reaction mix at absorbance of 10 at 527 nm, relative to same reaction without dye, FIG. 10): ≥ 50%
acid violet 5 [acid violet 5 Mg salt]		much less toxic to PCR than either the sodium or ammonium salts	
